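Cultured in 96-well plates, cells were exposed to test compound for 48 hours across five concentrations. At the GI50, growth is halved.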 The source made the active and inactive calls. No stated cut-off is given here; in the data, active = GI50 up to about 1.1 µM and inactive = higher.

Experiment in all cases: NCI tumour cell line growth inhibition, 48 h
The subject of test [1] is KM12.
For test [2], the system named is SNB-78.
The subject of test [3] is IGROV-1.
For test [4], the system named is SNB-75.
In test [5] the test system is KM-20L2.
Test [6] concerns SK-MEL-2.
Test [7] concerns SF-539.
Test [8] concerns HOP-62.
The test system of test [9] is Malme-3M.
Test [10] deals with HL-60.
Test [11] concerns U-251.
The subject of test [12] is SF-268.
Test [13] relates to SK-MEL-5.
Test [14] has as its system M14.
Test [15] concerns ACHN.
Test [16] concerns UACC-62.
The test system of test [17] is MDA-N.
Test [18] deals with MDA-MB-435.
The subject of test [19] is NCI/ADR-RES.
Test [20] deals with MCF7.

`CC(=O)Nc1ccc(-c2nnc(SCC(=O)Nc3ccc(Cl)cc3Cl)o2)cc1`: the GI50 is 65.9 µM (inactive) in test [1]; > 100 µM (inactive) in [2]; 37.1 µM (inactive) in test [3]; 31.3 µM (inactive) in [4]; 42.7 µM (inactive) in test [5]; > 100 µM (inactive) in [6]. Moreover, the GI50 in [7] was 33 µM (inactive); in test [8] it was 70 µM (inactive); in test [9], 20.7 µM (inactive); in test [10], 27.8 µM (inactive); in [11] it was 18 µM (inactive); in test [12] it was 44.7 µM (inactive). Moreover, the results for the GI50 in test [13], in [14] and in test [15] were 19.5 µM (inactive), 29.3 µM (inactive) and 44.6 µM (inactive), respectively.
For `O=c1[nH]nc2c3n[nH]c(=O)n3c3ccccc3n12`, the GI50 in test [1] is > 100 µM (inactive); in test [2], > 100 µM (inactive); in test [3] it was > 100 µM (inactive); in [4], 57.5 µM (inactive); in [5], > 100 µM (inactive); in test [6], > 100 µM (inactive). For the same compound, the GI50 in test [7] was 69.8 µM (inactive); in test [8], > 100 µM (inactive); in [9], > 100 µM (inactive); in test [11] it was > 100 µM (inactive); in test [12], > 100 µM (inactive); in test [13], > 100 µM (inactive). The GI50 in test [14], in [15] and in test [16] was > 100 µM (inactive) in each case.
Take `O=C(O)CC[C@H](NC(=O)c1ccc(-n2nc3ccc(=O)cc-3[nH]c2=O)cc1)C(=O)O`: the GI50 in test [1], in test [2], in test [3], in test [5], in [6] and in test [7] was > 100 µM (inactive) each time. Also, the GI50 in [8], in test [9], in [10], in [11], in test [12] and in test [13] was > 100 µM (inactive) each time. The GI50 in test [14], in test [15] and in test [16] was > 100 µM (inactive) each time.
With `CC1(C)CCC[C@@]2(C)C1CC[C@H]1CC(O)C3(C)CCC12C3` (some centres undefined), the GI50 was 17.5 µM (inactive) in [1]; 17.2 µM (inactive) in [2]; 22.2 µM (inactive) in [3]; 22.9 µM (inactive) in test [4]; 18.9 µM (inactive) in test [5]; 18.9 µM (inactive) in [7]. Also, the GI50 in [8] was 19.1 µM (inactive); in test [9], 16.9 µM (inactive); in test [10], 23.3 µM (inactive); in [11], 18.2 µM (inactive); in test [12] it was 19.2 µM (inactive); in test [13], 17.5 µM (inactive). In addition, the GI50 was 17.1 µM (inactive) in [14], 17.9 µM (inactive) in test [15] and 15.8 µM (inactive) in test [16].
Turning to `CCOc1ccc(NC(=O)CC2Sc3ccccc3NC2=O)cc1` (centres undefined), the GI50 in [1] is 28.3 µM (inactive); in [2] it was 57.1 µM (inactive); in test [3], > 100 µM (inactive); in [4], 31.6 µM (inactive); in test [5], > 100 µM (inactive); in [7], 45.3 µM (inactive). Also, the GI50 in test [8] was 44.9 µM (inactive); in test [9], 97.5 µM (inactive); in [10], > 100 µM (inactive); in test [11] it was 45 µM (inactive); in [12] it was 53 µM (inactive); in [13], > 100 µM (inactive). Further, the GI50 in test [14] was > 100 µM (inactive); in [15], 49.8 µM (inactive); in test [16], > 100 µM (inactive).
As for `O=c1[nH]ccc2c1ccn2C1CC(O)C(CO)O1` (centres undefined), the GI50 in test [1] is > 100 µM (inactive); in test [2], > 100 µM (inactive); in [3] it was > 100 µM (inactive); in [4] it was 46.5 µM (inactive); in test [6] it was > 100 µM (inactive); in [7], > 100 µM (inactive). In addition, the GI50 in [8], in test [9], in test [10], in [11], in test [13] and in test [14] was > 100 µM (inactive) each time. Further, the GI50 in test [15] and in [16] was > 100 µM (inactive) throughout.
As for `COc1ccc(/C(=N/NC(N)=O)C(c2ccc(OC)cc2)C2C(=O)Oc3ccccc32)cc1` (centres undefined), the GI50 in test [1], in test [2], in [3], in [4], in test [5] and in [7] was > 100 µM (inactive) in each case. The GI50 in test [8], in test [9], in [10], in [11], in test [12] and in test [13] was > 100 µM (inactive) each time. For the same compound, the GI50 in [14] and in [16] was > 100 µM (inactive) each time.
Take `COC(OC)c1cc2c(cc1C(=O)[C@@]13CCC[C@@H]1NC(=O)O3)OCO2`: the GI50 in test [1] is > 100 µM (inactive); in test [2] it was > 100 µM (inactive); in test [3], 73.5 µM (inactive); in test [4], 49 µM (inactive); in [6], > 100 µM (inactive); in test [7], > 100 µM (inactive). For the same compound, the GI50 was > 100 µM (inactive) in test [8]; 22.6 µM (inactive) in test [9]; > 100 µM (inactive) in test [10]; > 100 µM (inactive) in [11]; > 100 µM (inactive) in test [12]; 41.2 µM (inactive) in [13]. For the same compound, the GI50 is > 100 µM (inactive) in test [14], > 100 µM (inactive) in [15] and 34.1 µM (inactive) in [16].
Take `Cc1ccc2[nH]c3c(C)c4c(c(C)c3c2c1)CN(C)C=C4`: the GI50 is 0.54 µM (active) in test [1]; 0.738 µM (active) in test [2]; 0.698 µM (active) in test [3]; 0.75 µM (active) in test [4]; 2.18 µM (inactive) in test [5]; 1.72 µM (inactive) in test [6]. Further, the GI50 in [7] is 0.393 µM (active); in test [8] it was 0.743 µM (active); in [10] it was 4.46 µM (inactive); in [11] it was 0.271 µM (active); in [12], 0.353 µM (active); in test [13], 1.38 µM (inactive). For the same compound, the GI50 in [14] was 3.9 µM (inactive); in test [15], 6.55 µM (inactive); in [16] it was 1.62 µM (inactive).
`COc1ccc(N2C(=O)C3c4[nH]c5ccccc5c4C4CCC(C(C)(C)C)CC4C3C2=O)cc1OC` (centres undefined): the GI50 in [2] was 19.3 µM (inactive); in test [3], 33 µM (inactive); in test [4], 16.3 µM (inactive); in test [5], 36.8 µM (inactive); in test [7], 18.6 µM (inactive); in [8], 18 µM (inactive). For the same compound, the GI50 in test [9] was 38.4 µM (inactive); in [10], 59.4 µM (inactive); in test [11], 27.6 µM (inactive); in [12] it was 18.7 µM (inactive); in [13] it was 46.3 µM (inactive); in [14] it was 45.3 µM (inactive). Besides, the results for the GI50 in test [15] and in test [16] were 22.1 µM (inactive) and 63.4 µM (inactive), respectively.
With `Cc1cc2c(c3c1c1ccccc1n3C)C(=O)C=CC2=O`, the GI50 in [1] was 25.2 µM (inactive); in [2], > 54.1 µM (inactive); in [3], 39.6 µM (inactive); in test [4], 41.6 µM (inactive); in [17], 24.5 µM (inactive); in [6], 21.6 µM (inactive). For the same compound, the GI50 is 23.8 µM (inactive) in test [7]; 44.1 µM (inactive) in test [8]; 28.3 µM (inactive) in test [9]; 1.45 µM (inactive) in [10]; 28.8 µM (inactive) in test [18]; 35.8 µM (inactive) in test [19]. Further, the GI50 in test [11] is 19.3 µM (inactive); in test [12], 23.9 µM (inactive); in test [20], 10.9 µM (inactive); in test [13], 32.3 µM (inactive); in [14] it was 25.6 µM (inactive); in [15] it was 21.3 µM (inactive). Also, the GI50 in test [16] is 19.6 µM (inactive).
As for `OC1(C23CC4CC(CC(C4)C2)C3)CSCC1(O)C12CC3CC(CC(C3)C1)C2` (centres undefined), the GI50 in test [1], in test [2], in [3], in test [4], in test [6] and in test [7] was > 100 µM (inactive) in each case. Moreover, the GI50 was > 100 µM (inactive) in test [8]; > 100 µM (inactive) in test [9]; > 10 µM (inactive) in [10]; > 100 µM (inactive) in test [12]; > 100 µM (inactive) in test [13]; > 100 µM (inactive) in test [14]. Further, in test [16], the GI50 is 70.6 µM (inactive).
`Cn1nc2ccccc2cc1=O`: the GI50 was > 100 µM (inactive) in [1]; > 100 µM (inactive) in test [2]; > 100 µM (inactive) in test [3]; 59.2 µM (inactive) in test [4]; > 100 µM (inactive) in test [5]; > 100 µM (inactive) in [6]. Also, the GI50 in test [7], in test [8], in [9], in test [11], in test [12] and in test [13] was > 100 µM (inactive) in each case. Besides, the GI50 in test [14], in [15] and in [16] was > 100 µM (inactive) in each case.

Source of the values: ChEMBL document CHEMBL1201862, “PubChem BioAssay data set” (2004).
